Experimental data from patent US20240116845A1, “INDENE COMPOUNDS, PHARMACEUTICAL COMPOSITIONS THEREOF, AND THEIR THERAPEUTIC APPLICATIONS” (NucMito Pharmaceuticals Co., Ltd., priority 2021, published 2024).

Legend:
Assay type in all cases: cell-based
[1] = system: alpha-smooth muscle actin (α-SMA); assay: Inhibition of TGF-β induced expression of alpha-smooth muscle actin in CFSC cells (western blot); conditions: compound at 10 μM, TGF-β (10 ng/mL), 24 hours
Experimental: The ability of a compound to inhibit the TGF-β induced expression of alpha-smooth muscle actin (α-SMA) was evaluated in CCl4-treated fat storing (CFSC) cells. α-SMA is considered as a reliable marker of hepatic stellate cell activation and a key biomarker for liver fibrosis.
CFSC cells maintained in a DMEM medium supplemented with 10% fetal bovine serum were seeded to 12-well culture dishes and grown to a confluence of 60-70% the next day. Culture was changed to a serum-free DMEM medium and the cells were treated with the compound at 10 μM in the presence of TGF-β (10 ng/mL). The cells were incubated for another 24 hours. All culture was maintained at 37° C. in 5% carbon dioxide.
An NP-40 lysate solution (50 mM Tris, pH 7.4, 150 mM NaCl, 1% NP-40) with EDTA free cocktail added was used to lyse the cells on ice for 30 min. The lysate was collected and centrifuged at 4° C. for 10 min at 12,000 rpm. The pellet was discarded and the supernatant was transferred to a new tube. The cell lysate was loaded with 5× loading buffer and boiled for 10 min, resolved by 10% SDS-polyacrylamide gel electrophoresis (SDS-PAGE), and transferred to a PVDF membrane. The membrane was blocked with 5% skim milk in Tris-buffered saline and TWEEN® 20 (TBST; 10 mM Tris-HCl, pH 8.0, 150 mM NaCl, 0.1% TWEEN® 20) for 1 h at room temperature and then incubated with α-SMA and β-actin antibodies overnight at 4° C. After washing twice with TBST, the membrane was probed with a […] anti-immunoglobulin (1:5000 dilution) for 1 h at room temperature. After two subsequent rinses in TBST, immunoreactive products were reacted with ECL and visualized by a UVP CHEMSTUDIO™ imaging system. The western blotting bands are quantitated using an ImageJ software. The percentage of inhibition was obtained by calculating the percentage decrease in the band intensity compared to the one treated with TGF-β only.
The results are summarized in Table 1, where A represents a value no less than 80/% inhibition, B represents a value less than 80% but no less than 50% inhibition, C represents a value less than 50% but no less than 30% inhibition, and D represents a value less than 30% inhibition with a compound at 10 μM.

[2] = system: B16F10 (malignant melanoma); assay: Antiproliferative activity, CCK-8 cell viability; conditions: Mus musculus, B16-F10, 72 h, read-out: Inhibition of Cancerous Cells, B16F10
Experimental: (§1) The antiproliferative activity of a compound was determined in the following cell lines: MDA-MB-231 (breast cancer), HepG2 (liver cancer), SW480 (colon cancer), B16F10 (malignant melanoma), A431 (epidermoid carcinoma), A549 (lung adenocarcinoma), and HeLa (cervical cancer). MDA-MB-231, HepG2, SW480, B16F10, and A431 cells were cultured in Dulbecco's modified Eagle's medium (DMEM) containing 10% fetal bovine serum (FBS). HeLa cells were cultured in MEM/EBSS (MEM) containing 10% FBS. A549 cells were maintained in Kaighn's modification of Ham's F-12 medium containing 10% FBS. The Cell Counting Kit-8 (CCK-8) assay was used to determine the cell viability of cells following treatment with the compound.
(§2) Briefly, cells were seeded in a 96-well plate at a density of 2,000-5,000 cells/well. Following attachment, the cells were treated with the compound in media at a compound concentration of 3.3 μM, 10 μM, or 30 μM, or DMSO as a control. After the cells were incubated at 37° C. for 72 h, the CCK-8 solution (10 μL) was added to each well. After incubation at 37° C. for 4 h, the absorbance value of each well was determined using a multi-well plate reader at 450 nm. The percentage of cell viability was determined with respect to the DMSO-treated cells. The results were summarized in Table 2-4 below, wherein A represents no less than 50% inhibition of cell growth; B represents less than 50% but no less than 30% inhibition of cell growth; C represents less than 30% inhibition of cell growth.

SW480 (colon cancer) = assay: Antiproliferative activity, CCK-8 cell viability; conditions: Homo sapiens, 72 h, read-out: Inhibition of Cancerous Cells, SW480
Experimental: as §1, §2

[3] = system: A549 (lung adenocarcinoma); assay: Antiproliferative activity, CCK-8 cell viability; conditions: Homo sapiens, 72 h, read-out: Inhibition of Cancerous Cells, A549
Experimental: as §1, §2

[4] = system: MDA-MB-231 (breast cancer); assay: Antiproliferative activity, CCK-8 cell viability; conditions: Homo sapiens, 72 h, read-out: Inhibition of Cancerous Cells, MDA-MB-231
Experimental: as §1, §2

HeLa (cervical cancer) = assay: Antiproliferative activity, CCK-8 cell viability; conditions: Homo sapiens, 72 h, read-out: Inhibition of Cancerous Cells, HELA
Experimental: as §1, §2

HepG2 (liver cancer) = assay: Antiproliferative activity, CCK-8 cell viability; conditions: Homo sapiens, 72 h, read-out: Inhibition of Cancerous Cells, HepG2
Experimental: as §1, §2

[5] = compound concentration of 3.3 μM
[6] = compound concentration of 10 μM
[7] = compound concentration of 30 μM

SMILES: CC1=C(CC(=O)O)c2cc(F)ccc2/C1=C\c1ccc(COc2ccc(F)cc2)cc1 [Compound A1, 2-[(1Z)-5-Fluoro-1-(4-((4-fluorophenoxy)methyl)benzylidene)-2-methyl-1H-inden-3-yl]-acetic acid]
- inhibition at 10 µM [1]: ≥ 80%

SMILES: CC1=C(CC(=O)O)c2cc(F)ccc2/C1=C\c1ccc(OCc2ccccc2)cc1 [Compound A2, 2-[(1Z)-5-Fluoro-1-(4-(benzyloxy)benzylidene)-2-methyl-1H-inden-3-yl]-acetic acid]
- inhibition at 10 µM [1]: ≥ 80%

SMILES: CC1=C(CC(=O)O)c2cc(F)ccc2/C1=C\c1ccc(F)cc1OCc1ccccc1 [Compound A7, 2-[(1Z)-1-{[2-(Benzyloxy)-4-fluorophenyl]methylidene}-5-fluoro-2-methyl-1H-inden-3-yl]acetic acid]
- inhibition at 10 µM [1]: < 30%

SMILES: CC1=C(CC(=O)O)c2cc(F)ccc2/C1=C\c1ccc(COc2ccc(F)cc2)cc1C(F)(F)F [Compound A14, 2-[(1Z)-5-Fluoro-1-({4-[(4-fluorophenoxy)methyl]-2-(trifluoromethyl)phenyl}-methylidene)-2-methyl-1H-inden-3-yl]acetic acid]
- inhibition at 10 µM [1]: ≥ 80%

SMILES: CC1=C(CC(=O)N(C)O)c2cc(F)ccc2/C1=C\c1ccc(C2CC2)cc1 [Compound B3, (Z)-2-(1-(4-Cyclopropylbenzylidene)-5-fluoro-2-methyl-1H-inden-3-yl)-N-hydroxy-N-methylacetamide]
- inhibition at 10 µM [1]: ≥ 80%

SMILES: CON(C)C(=O)CC1=C(C)/C(=C/c2ccc(C(C)(C)C)cc2)c2ccc(F)cc21 [Compound B4, (Z)-2-(1-(4-(Tert-butyl)benzylidene)-5-fluoro-2-methyl-1H-inden-3-yl)-N-methoxy-N-methylacetamide]
- inhibition at 10 µM [1]: ≥ 80%

SMILES: CC1=C(CC(=O)N(C)O)c2cc(F)ccc2/C1=C\c1ccc(C)c2ccccc12 [Compound C1, (Z)-2-(5-Fluoro-2-methyl-1-((4-methylnaphthalen-1-yl)methylene)-1H-inden-3-yl)-N-hydroxy-N-methylacetamide]
- inhibition at 10 µM [1]: 50 to 80%

SMILES: CC1=C(CC(=O)NO)c2cc(F)ccc2/C1=C\c1ccc(C)c2ccccc12 [Compound C2, (Z)-2-(5-Fluoro-2-methyl-1-((4-methylnaphthalen-1-yl)methylene)-1H-inden-3-yl)-N-hydroxyacetamide]
- inhibition at 10 µM [1]: ≥ 80%

SMILES: CC1=C(CC(=O)O)c2cc(F)ccc2/C1=C\c1ccc(Br)c2ccccc12 [Compound C3, (Z)-2-(1-((4-Bromonaphthalen-1-yl)methylene)-5-fluoro-2-methyl-1H-inden-3-yl)acetic acid]
- inhibition at 10 µM [1]: ≥ 80%

SMILES: CC1=C(CC(=O)NO)c2cc(F)ccc2/C1=C\c1ccc(Br)c2ccccc12 [Compound C4, (Z)-2-(1-((4-Bromonaphthalen-1-yl)methylene)-5-fluoro-2-methyl-1H-inden-3-yl)-N-hydroxyacetamide]
- inhibition at 10 µM [1]: ≥ 80%

SMILES: CC1=C(CC(=O)O)c2cc(F)ccc2/C1=C\c1ccnc2ccccc12 [Compound C5, (Z)-2-(5-Fluoro-2-methyl-1-(quinolin-4-ylmethylene)-1H-inden-3-yl)acetic acid]
- inhibition at 10 µM [1]: ≥ 80%

SMILES: CC1=C(CC(=O)NO)c2cc(F)ccc2/C1=C\c1ccnc2ccccc12 [Compound C6, (Z)-2-(5-Fluoro-2-methyl-1-(quinolin-4-ylmethylene)-1H-inden-3-yl)-N-hydroxyacetamide]
- inhibition at 10 µM [1]: ≥ 80%

SMILES: CC1=C(CC(=O)NO)c2cc(F)ccc2/C1=C\c1ccc(Oc2ccc(C(C)C)cc2)cc1 [Compound D1, 2-[(1Z)-5-Fluoro-2-methyl-1-({4-[4-(propan-2-yl)phenoxy]phenyl}methylidene)-1H-inden-3-yl]-N-hydroxyacetamide]
- inhibition at 10 µM [1]: ≥ 80%

SMILES: CC1=C(CC(=O)O)c2cc(F)ccc2/C1=C\c1ccc(Oc2cccc(C(C)(C)C)c2)cc1 [Compound D3, 2-[(1Z)-5-Fluoro-2-methyl-1-({4-[3-(tert-butyl)phenoxy]phenyl}methylidene)-1H-inden-3-yl]acetic acid]
- inhibition at 10 µM [1]: ≥ 80%

SMILES: CC1=C(CC(=O)O)c2cc(F)ccc2/C1=C\c1ccc(Oc2ccc(C)c(F)c2)cc1 [Compound D4, 2-[(1Z)-5-Fluoro-2-methyl-1-({4-[3-fluoro-4-methylphenoxy]phenyl}-methylidene)-1H-inden-3-yl]acetic acid]
- inhibition at 10 µM [1]: ≥ 80%

SMILES: CC1=C(CC(=O)O)c2cc(F)ccc2/C1=C\c1ccc(Oc2cccc([N+](=O)[O-])c2)cc1 [Compound D6, 2-[(1Z)-5-Fluoro-2-methyl-1-({4-[3-nitrophenoxy]phenyl}methylidene)-1H-inden-3-yl]acetic acid]
- inhibition at 10 µM [1]: < 30%

SMILES: CC1=C(CC(=O)O)c2cc(F)ccc2/C1=C\c1ccc(Oc2ccc(C(F)(F)F)cc2)cc1 [Compound D7, 2-[(1Z)-5-Fluoro-2-methyl-1-({4-[4-(trifluoromethyl)phenoxy]phenyl}-methylidene)-1H-inden-3-yl]acetic acid]
- inhibition at 10 µM [1]: ≥ 80%

SMILES: O=C(O)CC1=C/C(=C/c2ccc(Oc3ccc(F)cc3)cc2)c2ccccc21 [Compound D32, 2-[(1Z)-1-{[4-(4-Fluorophenoxy)phenyl]methylidene}-1H-inden-3-yl]acetic acid]
- inhibition at 3.3 µM [2, 5]: < 30%
- inhibition at 10 µM [2, 6]: 30 to 50%
- inhibition at 30 µM [2, 7]: ≥ 50%
- inhibition at 3.3 µM (SW480 (colon cancer); [5]): < 30%
- inhibition at 10 µM (SW480 (colon cancer); [6]): < 30%
- inhibition at 30 µM (SW480 (colon cancer); [7]): < 30%
- inhibition at 3.3 µM [3, 5]: < 30%
- inhibition at 10 µM [3, 6]: < 30%
- inhibition at 30 µM [3, 7]: 30 to 50%
- inhibition at 3.3 µM [4, 5]: < 30%
- inhibition at 10 µM [4, 6]: < 30%
- inhibition at 30 µM [4, 7]: 30 to 50%
- inhibition at 3.3 µM (HeLa (cervical cancer); [5]): 30 to 50%
- inhibition at 10 µM (HeLa (cervical cancer); [6]): 30 to 50%
- inhibition at 30 µM (HeLa (cervical cancer); [7]): ≥ 50%
- inhibition at 3.3 µM (HepG2 (liver cancer); [5]): ≥ 50%
- inhibition at 10 µM (HepG2 (liver cancer); [6]): ≥ 50%
- inhibition at 30 µM (HepG2 (liver cancer); [7]): ≥ 50%
